Measurements: US10688200B2, “Urea-based prostate specific membrane antigen (PSMA) inhibitors for imaging and therapy” (Five Eleven Pharma Inc., priority 2015, dated 2020)

What was measured:
[1] = tested on: PSMA-expressing LNCaP cells; assay: Cell binding and internalization; type: cell-based, human; settings: for Cell surface binding activity / Internalized activity: 37° C.
Protocol: The cellular uptake and internalization kinetics of the [^68Ga]1a, [^68Ga]5a and [^68Ga]5b were determined using PSMA-expressing LNCaP cells. Furthermore, to be able to discriminate between total cellular activity (sum of membrane-associated and internalized activity) and internalized activity, all incubations were followed by a washing step with mild acid at 4° C. to remove specifically cell-surface bound radioligand by displacement.
LNCaP cells (in 6-well plates in triplicates) were incubated in RPMI-1640 medium with [^68Ga]1a, [^68Ga]5a or [^68Ga]5b for 0-2 h at 37° C. At the indicated time, the medium was removed and the cells were washed twice and then incubated with a mild acid buffer (50 mM glycine, 150 mM NaCl, pH 3.0) at 4° C. for 5 min. The supernatant (containing cell surface-bound radioactivity) was pooled and the cell pellet (containing internalized radioactivity) was collected with filter paper and then radioactivity in supernatant and cell pellet was counted on a gamma counter.
LNCaP cells were incubated with [^68Ga]1a, [^68Ga]5a and [^68Ga]5b for up to 2 h at 37° C. to determine whether the compound is internalized by endocytosis. The cells were then washed with a mild acid buffer to remove extracellularly bound compound.
Non specific binding (NSB) was evaluated by blocking with 20 μM PMPA. Specificity of cell uptake (SB) was calculated by subtracting the respective signals resulting from PMPA blocking. Values are expressed as % of applied radioactivity bound to 10^6 cells.

[2] = tested on: LNCaP tumor bearing nude mice; assay: Biodistribution of [68Ga]labeled ligand in PSMA positive tumor bearing nude mice; type: in vivo, mouse; settings: 1 h post-injection, i.v., n = 3
Protocol: In a dish contained 5×10^6 cells of LNCaP in 50% Matrigel (Becton Dickinson, Heidelberg, Germany) were subcutaneously inoculated into the left shoulder of male 5- to 6-week-old CD-1 nu/nu mice (Charles River Laboratories). The tumors were allowed to grow for 8 weeks until approximately 0.5 cm^3 in size.
The ^68Ga-radiolabeled compounds were injected via tail vein (25 μCi per mouse; 0.1-0.2 nmol). At 1 h after injection, the animals were sacrificed. Organs of interest were dissected and weighed. The radioactivity was measured with a gamma counter and calculated as % ID/g.

[3] = Biodistribution of radiotracers in normal mice; type: in vivo, mouse; settings: for Biodistribution: Blood / Biodistribution: Bone / Biodistribution: Brain / Biodistribution: Heart / Biodistribution: Kidney / Biodistribution: Liver / Biodistribution: Lung / Biodistribution: Muscle / Biodistribution: Pancreas / Biodistribution: Skin / Biodistribution: Spleen: normal male mice
Method in brief: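 Male CD-1 mice received 35 μCi [^68Ga] radiotracer (0.2 nmole ligand) by tail vein. Four mice per time point sacrificed at 2, 30, 60 and 120 min p.i.; organs and blood weighed and gamma counted. %ID/g calculated against a standard dilution of the dose, decay-corrected.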

[4] = tested on: LNCaP PSMA+ and PC-3 PSMA− tumor bearing mice; assay: Small animal microPET imaging of [68Ga]5b in tumor bearing nude mice; type: in vivo, mouse
Protocol: This study was performed in a small animal imaging facility Male CD-1-nu/nu mice were implanted subcutaneously with 5×10^6 LNCaP cells and PC-3 cells. When the tumors reached approximately 5-10 mm in diameter, the mice were used for microPET imaging. Mice bearing LNCaP tumor and PC-3 tumors were injected via the tail vein with ˜0.5 mCi of [^68Ga]5b. Imaging studies were carried out under general anesthesia of the animals, induced with inhalation of […] and maintained with inhalation of […] isoflurane in 30% oxygen/air. Animals were positioned prone in the scanner. Whole body scan was performed for 15 min from 60 min post-injection of radiotracers. PET images were generated using the AMIDE software. MicroPET images obtained in LNCaP and PC-3 tumor xenografts from 60 min to 75 min after injection of [^68Ga]5b are shown in FIGS. 5A-5C.

[5] = 60 min to 75 min after injection

O=C(O)CCc1ccc2c(c1)C[N+]13CC[N+]45CC(=O)[O][68Ga-3]14([O]C(=O)C3)([O]2)[O]c1ccc(CCC(=O)NCC(=O)N[C@@H](Cc2ccc(OCC(=O)N[C@@H](Cc3ccccc3)C(=O)NCCCC[C@H](NC(=O)N[C@@H](CCC(=O)O)C(=O)O)C(=O)O)cc2)C(=O)O)cc1C5 (some centres unmarked) [[^68Ga]5b]
Cell surface binding activity ([1]; 5 min): 2.50 ± 0.79 % ID/10^6 cells | Internalized activity ([1]; 5 min): 1.58 ± 0.30 % ID/10^6 cells | Cell surface binding activity ([1]; 15 min): 2.87 ± 0.10 % ID/10^6 cells | Internalized activity ([1]; 15 min): 4.08 ± 0.01 % ID/10^6 cells | Cell surface binding activity ([1]; 30 min): 3.54 ± 0.62 % ID/10^6 cells | Internalized activity ([1]; 30 min): 8.29 ± 0.54 % ID/10^6 cells | Cell surface binding activity ([1]; 60 min): 3.74 ± 0.33 % ID/10^6 cells | Internalized activity ([1]; 60 min): 12.5 ± 0.46 % ID/10^6 cells | Cell surface binding activity ([1]; 90 min): 5.03 ± 0.41 % ID/10^6 cells | Internalized activity ([1]; 90 min): 20.0 ± 2.54 % ID/10^6 cells | Cell surface binding activity ([1]; 120 min): 4.69 ± 0.45 % ID/10^6 cells | Internalized activity ([1]; 120 min): 18.9 ± 1.61 % ID/10^6 cells | Non specific binding (NSB) in LNCaP cell uptake, in words ([1]; blocking with 20 μM PMPA, FIG. 4): extremely low | Internalized activity, comparison in words ([1]; up to 2 h at 37° C.): much higher than those of [^68Ga]1a and [^68Ga]5a | Organ distribution: Blood [2]: 0.46 ± 0.04 % dose/g | Organ distribution: Bone [2]: 0.27 ± 0.07 % dose/g | Organ distribution: Brain [2]: 0.05 ± 0.01 % dose/g | Organ distribution: Heart [2]: 0.51 ± 0.12 % dose/g | Organ distribution: Liver [2]: 0.78 ± 0.09 % dose/g | Organ distribution: Lung [2]: 2.27 ± 0.37 % dose/g | Organ distribution: Muscle [2]: 0.34 ± 0.07 % dose/g | Organ distribution: Pancreas [2]: 0.97 ± 0.23 % dose/g | Organ distribution: Skin [2]: 1.16 ± 0.57 % dose/g | Organ distribution: Spleen [2]: 11.09 ± 3.35 % dose/g | Clearance from organs, in words ([3]; normal CD-1 male mice): cleared quickly and well except kidneys and spleen | Biodistribution: Body leftover ([3]; normal CD-1 male mice, 2 min): 2.30 ± 0.05 % dose/g | Biodistribution: Fat ([3]; normal CD-1 male mice, 2 min): 2.08 ± 0.27 % dose/g | Biodistribution: Large intestine ([3]; normal CD-1 male mice, 2 min): 1.20 ± 0.20 % dose/g | Biodistribution: Seminal vesicles ([3]; normal CD-1 male mice, 2 min): 1.47 ± 0.25 % dose/g | Biodistribution: Small intestine ([3]; normal CD-1 male mice, 2 min): 2.46 ± 0.15 % dose/g | Biodistribution: Stomach ([3]; normal CD-1 male mice, 2 min): 0.81 ± 0.29 % dose/g | Biodistribution: Tail ([3]; normal CD-1 male mice, 2 min): 8.08 ± 0.78 % dose/g | Biodistribution: Testes ([3]; normal CD-1 male mice, 2 min): 0.96 ± 0.15 % dose/g | Biodistribution: Body leftover ([3]; normal CD-1 male mice, 30 min): 0.98 ± 0.05 % dose/g | Biodistribution: Fat ([3]; normal CD-1 male mice, 30 min): 1.45 ± 0.13 % dose/g | Biodistribution: Large intestine ([3]; normal CD-1 male mice, 30 min): 0.37 ± 0.04 % dose/g | Biodistribution: Seminal vesicles ([3]; normal CD-1 male mice, 30 min): 1.13 ± 0.19 % dose/g | Biodistribution: Small intestine ([3]; normal CD-1 male mice, 30 min): 1.03 ± 0.07 % dose/g | Biodistribution: Stomach ([3]; normal CD-1 male mice, 30 min): 0.31 ± 0.07 % dose/g | Biodistribution: Tail ([3]; normal CD-1 male mice, 30 min): 2.92 ± 0.95 % dose/g | Biodistribution: Testes ([3]; normal CD-1 male mice, 30 min): 1.14 ± 0.21 % dose/g | Biodistribution: Body leftover ([3]; normal CD-1 male mice, 60 min): 0.52 ± 0.11 % dose/g | Biodistribution: Fat ([3]; normal CD-1 male mice, 60 min): 0.73 ± 0.11 % dose/g | Biodistribution: Large intestine ([3]; normal CD-1 male mice, 60 min): 0.31 ± 0.21 % dose/g | Biodistribution: Seminal vesicles ([3]; normal CD-1 male mice, 60 min): 0.94 ± 0.22 % dose/g | Biodistribution: Small intestine ([3]; normal CD-1 male mice, 60 min): 0.74 ± 0.17 % dose/g | Biodistribution: Stomach ([3]; normal CD-1 male mice, 60 min): 0.17 ± 0.06 % dose/g | Biodistribution: Tail ([3]; normal CD-1 male mice, 60 min): 1.73 ± 0.55 % dose/g | Biodistribution: Testes ([3]; normal CD-1 male mice, 60 min): 0.82 ± 0.06 % dose/g | Biodistribution: Body leftover ([3]; normal CD-1 male mice, 120 min): 0.27 ± 0.01 % dose/g | Biodistribution: Fat ([3]; normal CD-1 male mice, 120 min): 0.35 ± 0.04 % dose/g | Biodistribution: Large intestine ([3]; normal CD-1 male mice, 120 min): 0.54 ± 0.16 % dose/g | Biodistribution: Seminal vesicles ([3]; normal CD-1 male mice, 120 min): 0.64 ± 0.10 % dose/g | Biodistribution: Small intestine ([3]; normal CD-1 male mice, 120 min): 0.45 ± 0.12 % dose/g | Biodistribution: Stomach ([3]; normal CD-1 male mice, 120 min): 0.22 ± 0.05 % dose/g | Biodistribution: Tail ([3]; normal CD-1 male mice, 120 min): 0.55 ± 0.04 % dose/g | Biodistribution: Testes ([3]; normal CD-1 male mice, 120 min): 0.68 ± 0.06 % dose/g | Biodistribution: Blood ([3]; 2 min): 7.94 ± 0.52 % dose/g | Biodistribution: Bone ([3]; 2 min): 2.16 ± 0.11 % dose/g | Biodistribution: Brain ([3]; 2 min): 0.19 ± 0.02 % dose/g | Biodistribution: Heart ([3]; 2 min): 4.33 ± 0.11 % dose/g | Biodistribution: Kidney ([3]; 2 min): 50.32 ± 3.31 % dose/g | Biodistribution: Liver ([3]; 2 min): 2.97 ± 0.24 % dose/g | Biodistribution: Lung ([3]; 2 min): 5.75 ± 0.26 % dose/g | Biodistribution: Muscle ([3]; 2 min): 1.97 ± 0.16 % dose/g | Biodistribution: Pancreas ([3]; 2 min): 2.18 ± 0.04 % dose/g | Biodistribution: Skin ([3]; 2 min): 2.38 ± 0.10 % dose/g | Biodistribution: Spleen ([3]; 2 min): 3.86 ± 0.57 % dose/g | Biodistribution: Blood ([3]; 30 min): 1.13 ± 0.13 % dose/g | Biodistribution: Bone ([3]; 30 min): 0.60 ± 0.02 % dose/g | Biodistribution: Brain ([3]; 30 min): 0.05 ± 0.01 % dose/g | Biodistribution: Heart ([3]; 30 min): 0.98 ± 0.06 % dose/g | Biodistribution: Kidney ([3]; 30 min): 73.96 ± 5.56 % dose/g | Biodistribution: Liver ([3]; 30 min): 0.95 ± 0.11 % dose/g | Biodistribution: Lung ([3]; 30 min): 2.63 ± 0.08 % dose/g | Biodistribution: Muscle ([3]; 30 min): 0.67 ± 0.05 % dose/g | Biodistribution: Pancreas ([3]; 30 min): 0.80 ± 0.09 % dose/g | Biodistribution: Skin ([3]; 30 min): 1.14 ± 0.15 % dose/g | Biodistribution: Spleen ([3]; 30 min): 1.70 ± 0.44 % dose/g | Biodistribution: Blood ([3]; 60 min): 0.48 ± 0.11 % dose/g | Biodistribution: Bone ([3]; 60 min): 0.38 ± 0.04 % dose/g | Biodistribution: Brain ([3]; 60 min): 0.03 ± 0.00 % dose/g | Biodistribution: Heart ([3]; 60 min): 0.40 ± 0.09 % dose/g | Biodistribution: Kidney ([3]; 60 min): 62.77 ± 12.55 % dose/g | Biodistribution: Liver ([3]; 60 min): 0.54 ± 0.09 % dose/g | Biodistribution: Lung ([3]; 60 min): 1.28 ± 0.31 % dose/g | Biodistribution: Muscle ([3]; 60 min): 0.31 ± 0.07 % dose/g | Biodistribution: Pancreas ([3]; 60 min): 0.52 ± 0.02 % dose/g | Biodistribution: Skin ([3]; 60 min): 0.58 ± 0.19 % dose/g | Biodistribution: Spleen ([3]; 60 min): 1.71 ± 0.66 % dose/g | Biodistribution: Blood ([3]; 120 min): 0.27 ± 0.07 % dose/g | Biodistribution: Bone ([3]; 120 min): 0.26 ± 0.01 % dose/g | Biodistribution: Brain ([3]; 120 min): 0.02 ± 0.00 % dose/g | Biodistribution: Heart ([3]; 120 min): 0.22 ± 0.06 % dose/g | Biodistribution: Kidney ([3]; 120 min): 49.00 ± 4.76 % dose/g | Biodistribution: Liver ([3]; 120 min): 0.37 ± 0.06 % dose/g | Biodistribution: Lung ([3]; 120 min): 0.61 ± 0.07 % dose/g | Biodistribution: Muscle ([3]; 120 min): 0.16 ± 0.01 % dose/g | Biodistribution: Pancreas ([3]; 120 min): 0.32 ± 0.02 % dose/g | Biodistribution: Skin ([3]; 120 min): 0.26 ± 0.02 % dose/g | Biodistribution: Spleen ([3]; 120 min): 1.39 ± 0.38 % dose/g | Binding in LNCaP tumor and kidney with 2-PMPA co-injection, in words ([4]; 2-PMPA 2 mg/kg co-injected): binding was abolished in the LNCaP tumor and kidney tissue | PC-3 (PSMA negative) tumor uptake in microPET, in words [4, 5]: did not show any uptakes | Uptake in microPET images, in words [4, 5]: uptake was seen only in the kidneys, bladder and PSMA positive LNCaP tumor
